The subject of series [1] is myelodysplatic syndrome (MDS). Particulars: treated patients with MDS; cited from earlier work.
Series [2] deals with various tumor cells lines, both solid and hematologic. Conditions: available data; cited from earlier work.
The conditions of series [3]: following subcutaneous administration; cited from earlier work.
The target of series [4] is cytidine deaminase (Homo sapiens, UniProt P32320). Particulars: deamination of the base to inactive uracil; cited from earlier work.
Series [5] concerns various tumor cells lines, both solid and hematologic. The series can be described thus: Cytotoxicity against various tumor cell lines (overall comparison). The format is cell-based.
In series [6] the test system is DNA methyltransferase (DNMT). The series can be described thus: In vitro DNA methyltransferase inhibition in HCT-116 cells (EpiQuick kit). It counts as cell-based. As to the method: The assay was performed using the EpiQuick DNA Methyltransferase Activity/Inhibition Assay Kit (Epigentek, Brooklyn, N.Y.). The […] cells were incubated with 1 μM and 10 μM concentrations of each drug for a period of 24 hours.

In series [7] the test system is HCT-116. The series can be described thus: In vitro cytotoxicity (GI50), colon/colorectal cell line. It counts as cell-based. Here is the method: (§1) The in vitro cytotoxicity was measured in the following cell lines: NCI-H460 (ATCC #HTB-177) (non-small cell lung), HCT-116 (ATCC #CCL-247) (colorectal), HL-60 (ATCC #CCL-240) (leukemia), and MDA-MB-231 (ATCC #HTB-26) (breast).

The test system of series [8] is NCI-H460. The series can be described thus: In vitro cytotoxicity (GI50), non-small cell lung cell line. It counts as cell-based. As to the method: as §1
Series [9] concerns MDA-MB-231. Kind of series: In vitro cytotoxicity (GI50), breast cancer cell line. The format is cell-based. Here is the method: as §1
In series [10] the test system is L1210. The series can be described thus: In vitro cytotoxicity, leukemia cell line L1210. Conditions: read-out: In vitro cytotoxicity, Leukemia L1210; Table 3.
For series [11], the system named is L1210.

Consider 7 compounds from patent publication US9493500B2, “Fluorinated pyrimidine analogs and methods of use thereof” (priority 2012, dated 2016).

Structures are written as SMILES. Like-named read-outs stand apart in the source and are kept apart here.

Chain of cytidine deaminase (P32320 whole entry, species assumed): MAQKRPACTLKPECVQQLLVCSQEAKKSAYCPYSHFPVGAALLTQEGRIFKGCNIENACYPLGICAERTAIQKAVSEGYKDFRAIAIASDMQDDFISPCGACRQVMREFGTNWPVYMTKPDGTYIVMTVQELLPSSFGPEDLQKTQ

Take `Nc1ncn([C@@H]2O[C@H](CO)[C@@H](O)[C@H]2O)c(=O)n1` [Azacytidine, 5-azacytidine]: the “Remissions or clinical improvements” value in [1] was “remissions or clinical improvements in more than half of the treated patients”.
For `NC1=NC(=O)N([C@H]2C[C@H](O)[C@@H](CO)O2)CN1` [DHADC, 5,6-dihydro-5-aza-2′-deoxycytidine], the “Cytotoxicity compared to decitabine” value in [2] was “lesser cytotoxicity”.
In the case of `Nc1ncn([C@H]2C[C@H](O)[C@@H](CO)O2)c(=O)n1` [Decitabine, 5-azadeoxycytidine], in series [3], the Half-life is 30 min. For the same compound, the “Substrate for cytidine deaminase” value in series [4] is on record as “good substrates for cytidine deaminase”. In series [1], the “Remissions or clinical improvements” value was “remissions or clinical improvements in more than half of the treated patients”.
Consider `Nc1ncn([C@@H]2O[C@H](CO)[C@@H](O)C2(F)F)c(=O)n1` [NUC013, 2′,2′-difluoro-5-azadeoxycytidine], for which, in [5], the “Cytotoxicity profile (in words)” value is “active against cell lines that are resistant to decitabine”. Moreover, the “DNA methyltransferase inhibition (conclusion in words)” value in series [6] was “is an inhibitor of DNA methyltransferase”.
With `NC1=NC(=O)N([C@@H]2O[C@H](CO)[C@@H](O)C2(F)F)CN1` [NUC014, 2′,2′-difluoro-5,6-dihydro-5-azadeoxycytidine], the “Cytotoxicity profile (in words)” value in series [5] is “less cytotoxic than NUC013”.
As to `O=c1ncccn1[C@@H]1O[C@H](CO)[C@@H](O)C1(F)F` [NUC019, 2′-deoxy-2′,2′-difluorozebularine], the IC50 was 310 µM in [7] (Table 3, read-out: In vitro cytotoxicity, Colon HCT-116); 136 µM in series [8] (Table 3, read-out: In vitro cytotoxicity, NSCL NCI-H460); 166 µM in series [9] (Table 3, read-out: In vitro cytotoxicity, Breast MDA-MB-231); 321 µM in [10].
As for `O=c1ncccn1[C@H]1O[C@H](CO)[C@@H](O)C1(F)F` [NUC020], the IC50 was 279 µM in series [7], 136 µM in series [8], 346 µM in [11] and 213 µM in series [9].
